The values below come from ChEMBL document CHEMBL4507281, “Data for DCP probe BI-4394” (2021).

Common to all, as to details: Compound concentration 10.0 uM
Assay [1] deals with High affinity nerve growth factor receptor (Homo sapiens) (UniProt P04629).
For assay [2], the target named is Platelet-derived growth factor receptor beta (Homo sapiens) (UniProt P09619).
Assay [3] deals with Tyrosine-protein kinase BTK (Homo sapiens) (UniProt Q06187).
In assay [4] the target is T1, Interleukin-1 receptor-associated kinase 4 (Homo sapiens) (UniProt Q9NWZ3).
T1 sequence (whole entry): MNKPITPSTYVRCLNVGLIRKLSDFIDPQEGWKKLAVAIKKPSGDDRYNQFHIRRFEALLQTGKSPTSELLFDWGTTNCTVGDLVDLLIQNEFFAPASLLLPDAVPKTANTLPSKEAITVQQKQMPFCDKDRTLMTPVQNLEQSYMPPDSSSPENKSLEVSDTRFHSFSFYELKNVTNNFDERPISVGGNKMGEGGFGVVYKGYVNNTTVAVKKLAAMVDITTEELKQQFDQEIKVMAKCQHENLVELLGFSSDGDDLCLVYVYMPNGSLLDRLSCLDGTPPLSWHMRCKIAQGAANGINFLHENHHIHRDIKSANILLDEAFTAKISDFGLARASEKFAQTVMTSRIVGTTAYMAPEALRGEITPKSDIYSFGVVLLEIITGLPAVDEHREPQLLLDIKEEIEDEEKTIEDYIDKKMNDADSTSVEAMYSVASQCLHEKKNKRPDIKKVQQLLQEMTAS

Assay [5] has as its target Receptor-type tyrosine-protein kinase FLT3 (Homo sapiens) (UniProt P36888).
Assay [6] deals with Mitogen-activated protein kinase 14 (Homo sapiens) (UniProt Q16539).
Mitogen-activated protein kinase 14 (Homo sapiens), sequence (Q16539 whole entry): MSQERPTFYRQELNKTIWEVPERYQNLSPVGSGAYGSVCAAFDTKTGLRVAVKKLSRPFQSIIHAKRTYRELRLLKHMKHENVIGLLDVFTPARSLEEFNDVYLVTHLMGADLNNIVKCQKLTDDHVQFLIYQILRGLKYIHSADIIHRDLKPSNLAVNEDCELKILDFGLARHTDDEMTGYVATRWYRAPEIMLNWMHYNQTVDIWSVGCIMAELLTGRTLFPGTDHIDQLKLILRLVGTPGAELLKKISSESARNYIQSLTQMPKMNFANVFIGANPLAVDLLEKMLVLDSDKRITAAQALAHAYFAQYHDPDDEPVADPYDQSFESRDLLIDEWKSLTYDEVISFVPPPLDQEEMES
For assay [7], the target named is Mitogen-activated protein kinase kinase kinase kinase 4 (Homo sapiens) (UniProt O95819).
Assay [8] deals with Serine/threonine-protein kinase mTOR (Homo sapiens) (UniProt P42345).
Assay [9] addresses Ribosomal protein S6 kinase beta-1 (Homo sapiens) (UniProt P23443).
Assay [10] has as its target Dual specificity mitogen-activated protein kinase kinase 1 (Homo sapiens) (UniProt Q02750).
Assay [11] addresses T2, Protein kinase C epsilon type (Homo sapiens) (UniProt Q02156).
T2 sequence (whole entry): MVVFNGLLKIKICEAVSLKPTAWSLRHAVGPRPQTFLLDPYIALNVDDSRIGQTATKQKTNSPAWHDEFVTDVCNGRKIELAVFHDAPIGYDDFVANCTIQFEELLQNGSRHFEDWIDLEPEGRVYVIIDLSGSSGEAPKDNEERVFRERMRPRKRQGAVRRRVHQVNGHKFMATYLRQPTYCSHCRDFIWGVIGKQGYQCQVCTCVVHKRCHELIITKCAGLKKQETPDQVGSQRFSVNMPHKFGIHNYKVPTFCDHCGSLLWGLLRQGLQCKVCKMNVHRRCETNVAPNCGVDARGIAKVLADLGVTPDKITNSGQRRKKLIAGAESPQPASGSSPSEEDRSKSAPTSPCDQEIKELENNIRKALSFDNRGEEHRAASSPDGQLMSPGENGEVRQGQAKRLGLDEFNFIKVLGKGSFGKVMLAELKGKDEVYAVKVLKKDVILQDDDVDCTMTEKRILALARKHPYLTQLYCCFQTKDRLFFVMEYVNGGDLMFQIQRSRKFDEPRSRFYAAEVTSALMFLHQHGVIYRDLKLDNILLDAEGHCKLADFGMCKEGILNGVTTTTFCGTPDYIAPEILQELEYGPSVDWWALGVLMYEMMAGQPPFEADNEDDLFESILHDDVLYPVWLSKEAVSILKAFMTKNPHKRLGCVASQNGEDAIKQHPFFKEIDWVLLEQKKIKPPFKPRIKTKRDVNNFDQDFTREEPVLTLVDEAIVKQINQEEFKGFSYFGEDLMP

Assay [12] concerns the target Protein kinase C beta type (Homo sapiens) (UniProt P05771).
Assay [13] addresses D(4) dopamine receptor (Homo sapiens) (UniProt P21917).
For assay [14], the target named is 5-hydroxytryptamine receptor 1A (Homo sapiens) (UniProt P08908).
5-hydroxytryptamine receptor 1A (Homo sapiens), sequence (P08908 whole entry): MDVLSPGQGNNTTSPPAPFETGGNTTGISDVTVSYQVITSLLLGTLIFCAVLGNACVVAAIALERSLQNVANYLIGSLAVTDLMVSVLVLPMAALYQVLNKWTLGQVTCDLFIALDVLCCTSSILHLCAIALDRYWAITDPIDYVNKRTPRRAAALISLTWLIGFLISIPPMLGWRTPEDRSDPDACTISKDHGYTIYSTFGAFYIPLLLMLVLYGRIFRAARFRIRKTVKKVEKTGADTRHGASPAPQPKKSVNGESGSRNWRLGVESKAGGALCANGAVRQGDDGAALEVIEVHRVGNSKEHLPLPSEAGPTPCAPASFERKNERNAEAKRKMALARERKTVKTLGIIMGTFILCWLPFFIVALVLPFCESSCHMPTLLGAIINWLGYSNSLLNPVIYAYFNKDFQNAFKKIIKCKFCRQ

High affinity nerve growth factor receptor (Homo sapiens), sequence (P04629 33-796 limits assumed): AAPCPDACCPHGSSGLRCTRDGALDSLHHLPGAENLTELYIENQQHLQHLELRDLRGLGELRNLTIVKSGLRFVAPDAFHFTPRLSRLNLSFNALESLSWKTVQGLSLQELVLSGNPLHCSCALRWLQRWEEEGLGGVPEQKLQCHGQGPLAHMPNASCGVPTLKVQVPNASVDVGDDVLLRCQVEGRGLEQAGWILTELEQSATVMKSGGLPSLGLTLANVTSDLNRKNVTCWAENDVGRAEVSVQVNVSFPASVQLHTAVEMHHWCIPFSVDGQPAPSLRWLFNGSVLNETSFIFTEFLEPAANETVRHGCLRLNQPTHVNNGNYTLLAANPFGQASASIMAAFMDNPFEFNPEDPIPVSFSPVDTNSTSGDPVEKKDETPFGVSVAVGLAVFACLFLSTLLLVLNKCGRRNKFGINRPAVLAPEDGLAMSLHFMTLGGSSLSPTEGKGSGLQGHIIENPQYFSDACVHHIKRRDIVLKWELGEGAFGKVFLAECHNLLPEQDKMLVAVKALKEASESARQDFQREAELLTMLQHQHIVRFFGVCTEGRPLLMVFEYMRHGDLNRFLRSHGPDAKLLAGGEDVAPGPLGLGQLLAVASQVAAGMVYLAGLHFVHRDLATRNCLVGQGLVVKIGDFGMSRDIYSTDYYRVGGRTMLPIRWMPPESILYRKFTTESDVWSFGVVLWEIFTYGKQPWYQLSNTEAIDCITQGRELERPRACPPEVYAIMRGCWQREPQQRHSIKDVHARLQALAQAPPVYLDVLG
Receptor-type tyrosine-protein kinase FLT3 (Homo sapiens), sequence (P36888 whole entry): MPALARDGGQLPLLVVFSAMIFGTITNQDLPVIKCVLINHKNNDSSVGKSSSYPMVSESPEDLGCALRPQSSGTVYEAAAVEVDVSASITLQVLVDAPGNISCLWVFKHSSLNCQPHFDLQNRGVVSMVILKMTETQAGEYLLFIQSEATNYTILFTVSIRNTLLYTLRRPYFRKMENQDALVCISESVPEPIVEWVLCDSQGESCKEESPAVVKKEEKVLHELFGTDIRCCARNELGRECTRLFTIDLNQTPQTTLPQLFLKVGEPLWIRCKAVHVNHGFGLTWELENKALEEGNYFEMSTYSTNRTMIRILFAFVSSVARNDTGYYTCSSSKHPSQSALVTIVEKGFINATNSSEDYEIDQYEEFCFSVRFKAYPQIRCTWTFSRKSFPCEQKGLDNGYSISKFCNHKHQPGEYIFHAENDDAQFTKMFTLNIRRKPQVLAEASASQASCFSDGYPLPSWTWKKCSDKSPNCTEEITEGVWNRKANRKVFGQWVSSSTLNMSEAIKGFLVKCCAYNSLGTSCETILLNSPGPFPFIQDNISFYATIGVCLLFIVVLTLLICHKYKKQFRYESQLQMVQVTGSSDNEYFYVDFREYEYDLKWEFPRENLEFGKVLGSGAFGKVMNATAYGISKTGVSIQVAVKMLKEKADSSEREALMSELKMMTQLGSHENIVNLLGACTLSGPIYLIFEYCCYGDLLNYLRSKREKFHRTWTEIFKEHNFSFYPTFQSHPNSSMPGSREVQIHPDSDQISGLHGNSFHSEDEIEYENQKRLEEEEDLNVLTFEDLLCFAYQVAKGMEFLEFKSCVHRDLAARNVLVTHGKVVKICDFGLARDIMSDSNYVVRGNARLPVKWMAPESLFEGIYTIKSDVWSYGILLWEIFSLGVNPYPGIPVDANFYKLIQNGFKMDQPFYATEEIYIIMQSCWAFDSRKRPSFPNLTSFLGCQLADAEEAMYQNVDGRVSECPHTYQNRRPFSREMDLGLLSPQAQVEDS
D(4) dopamine receptor (Homo sapiens), sequence (P21917 whole entry): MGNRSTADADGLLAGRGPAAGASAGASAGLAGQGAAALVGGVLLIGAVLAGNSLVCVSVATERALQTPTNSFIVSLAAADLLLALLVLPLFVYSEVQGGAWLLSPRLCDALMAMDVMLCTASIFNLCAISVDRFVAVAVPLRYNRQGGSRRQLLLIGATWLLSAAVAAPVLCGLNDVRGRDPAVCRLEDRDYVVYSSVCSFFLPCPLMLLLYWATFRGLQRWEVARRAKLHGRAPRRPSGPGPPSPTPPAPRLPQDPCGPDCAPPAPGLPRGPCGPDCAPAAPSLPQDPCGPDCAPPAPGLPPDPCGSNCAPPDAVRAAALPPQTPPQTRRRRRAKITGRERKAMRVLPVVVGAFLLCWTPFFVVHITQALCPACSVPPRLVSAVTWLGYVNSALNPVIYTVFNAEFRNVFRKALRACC
Dual specificity mitogen-activated protein kinase kinase 1 (Homo sapiens), sequence (Q02750 whole entry): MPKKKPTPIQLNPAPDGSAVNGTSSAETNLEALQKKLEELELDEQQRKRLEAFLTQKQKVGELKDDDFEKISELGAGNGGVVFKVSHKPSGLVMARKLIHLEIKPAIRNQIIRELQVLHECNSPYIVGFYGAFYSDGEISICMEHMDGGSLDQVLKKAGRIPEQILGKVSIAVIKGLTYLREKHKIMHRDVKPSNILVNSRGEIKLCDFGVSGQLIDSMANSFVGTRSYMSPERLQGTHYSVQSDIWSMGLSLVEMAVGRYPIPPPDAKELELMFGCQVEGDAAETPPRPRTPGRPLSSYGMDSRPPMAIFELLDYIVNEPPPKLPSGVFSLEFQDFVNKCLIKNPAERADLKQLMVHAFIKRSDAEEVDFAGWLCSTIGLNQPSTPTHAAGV
Protein kinase C beta type (Homo sapiens), sequence (P05771 2-671 limits assumed): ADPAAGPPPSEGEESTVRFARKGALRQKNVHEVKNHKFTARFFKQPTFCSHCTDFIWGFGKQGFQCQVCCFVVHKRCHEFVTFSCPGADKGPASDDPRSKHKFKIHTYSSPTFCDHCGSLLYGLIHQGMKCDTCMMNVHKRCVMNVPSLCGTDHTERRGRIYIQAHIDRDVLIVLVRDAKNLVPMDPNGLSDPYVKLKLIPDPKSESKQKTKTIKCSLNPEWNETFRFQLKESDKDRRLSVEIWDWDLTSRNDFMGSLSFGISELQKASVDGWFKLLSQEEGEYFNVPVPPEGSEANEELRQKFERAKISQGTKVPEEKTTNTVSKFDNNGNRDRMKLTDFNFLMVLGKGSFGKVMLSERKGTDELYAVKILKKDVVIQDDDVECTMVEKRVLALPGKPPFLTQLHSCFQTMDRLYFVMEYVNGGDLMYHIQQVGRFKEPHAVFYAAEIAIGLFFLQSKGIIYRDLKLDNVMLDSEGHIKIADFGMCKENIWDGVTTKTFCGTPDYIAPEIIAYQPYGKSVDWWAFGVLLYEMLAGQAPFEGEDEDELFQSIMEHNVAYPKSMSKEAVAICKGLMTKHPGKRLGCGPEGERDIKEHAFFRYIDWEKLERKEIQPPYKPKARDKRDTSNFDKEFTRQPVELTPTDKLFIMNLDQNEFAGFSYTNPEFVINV
Ribosomal protein S6 kinase beta-1 (Homo sapiens), sequence (P23443 whole entry, looked up): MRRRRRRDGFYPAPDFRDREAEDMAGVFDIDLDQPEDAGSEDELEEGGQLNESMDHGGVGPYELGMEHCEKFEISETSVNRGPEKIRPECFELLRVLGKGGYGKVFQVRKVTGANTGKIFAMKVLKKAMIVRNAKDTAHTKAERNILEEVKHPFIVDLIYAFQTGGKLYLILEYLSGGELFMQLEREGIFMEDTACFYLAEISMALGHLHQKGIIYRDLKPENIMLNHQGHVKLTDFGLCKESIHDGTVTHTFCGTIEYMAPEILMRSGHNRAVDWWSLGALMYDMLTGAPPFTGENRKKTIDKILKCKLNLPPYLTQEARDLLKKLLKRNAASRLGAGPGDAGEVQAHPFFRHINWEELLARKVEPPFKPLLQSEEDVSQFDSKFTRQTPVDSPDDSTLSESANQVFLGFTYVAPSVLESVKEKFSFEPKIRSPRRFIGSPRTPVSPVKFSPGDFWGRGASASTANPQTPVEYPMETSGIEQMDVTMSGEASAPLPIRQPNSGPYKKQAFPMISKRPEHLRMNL

Regarding `CCOC(=O)c1cc2cc(-c3cc(C(=O)NCc4ccc(C(=O)O)cc4)nn3C)ccc2[nH]1` [BI 4394], the residual activity in [1] is 190%; in assay [2] it was 96%; in assay [3] it was 68%; in [4], 121%; in assay [5], 64%; in assay [6] it was 6%. For the same compound, the residual activity is 32% in assay [7]; 78% in assay [8]; 89% in assay [9]; 78% in [10]; 115% in [11]; 97% in assay [12].

As for `Cn1nc(C(=O)NCc2ccc(C(=O)O)cc2)cc1-c1ccc2[nH]ccc2c1` [BI 4395], the inhibition in assay [13] is -8.91%; in [14] it was 22.7%.
